According to patent US6436705B1, “Shape stabilized erythrocytes” (The United States of America as represented by the …, priority 1997, dated 2002):
Read-outs that look alike come from different tables or passages of the source.

Key:
erythrocytes = assay: Assay of capacity for shape change (LPC-induced echinocytosis, microscopy); format: cell-based, human; conditions: 5 mM DTBP for 1 h, then 10 μg/ml LPC
Method: Microscopy. Cross-linked and reversed cells were prepared as described in the section on erythrocyte preparation, etc., with the addition of 0.5% bovine serum albumin to the solution prior microscopic examination. Cells were examined using an Nikon Optiphot, equipped with PlanApo 20×objective.
Assay of capacity for shape change. To induce echinocytosis ([…]), erythrocytes were incubated with 10μg/ml LPC for 2 min at room temperature. Erythrocytes were pretreated with 5 mM DTBP for 1 h and then subjected to 10 μg/ml LPC treatment. Microscopic examination of cell morphology was performed. Erythrocytes were pretreated with 5 mM DTBP for 1 h, reversed with 10 mM DTT for 20 min and then subjected to 10 μg/ml LPC treatment. Microscopic examination followed. Erythrocyte response to LPC of normal, cross-linked and reversed cells was compared.

Red blood cells = assay: Metabolic viability: ATP content of red blood cells over time; format: cell-based, human
Method: The metabolic viability of cross-linked cells was assayed by monitoring the production and depletion of ATP over time. DTBP cells were cross-linked in 5 mM DTBP 150 mM glucose for 5 hours at 4° C. The cells were then washed 3 times and incubated in 150 mM glucose for an additional 19 hrs. After washing to remove the glucose the cells were incubated at 4° C. in PBS for 72 hrs before being returned to 150 mM glucose for the final 24 hr incubation. At each time point cells were removed, washed, and spectrophotometrically assayed for ATP as described in the text. The glucose controls were cells treated in the same manor but without crosslinking, and the control cells are cells without exposure to glucose.

Human erythrocytes [1] = assay: Osmotic fragility test; format: cell-based; conditions: 5 mM DTBP
Method: An osmotic fragility test (a common clinical test) was performed on erythrocytes cross-linked with 5 mM DTBP for different incubation times and on erythrocytes cross-linked and reversed with DTT. Briefly, 1 ml of the erythrocyte suspension was taken out at regular incubation times, centrifuged, and DTBP or DTT was removed (Eppendorf centrifuge for 3 min at 3000×g). 1 ml of solutions containing buffered sodium sodium chloride at different concentrations (from 1% to 0.1% NaCl in phosphate buffer) were added to the packed cells. After 30 min the samples were centrifugated (Eppendorf centrifuge for 3 min at 3000×g), and the supernatants were processed for hemolysis measurements.

Human erythrocytes [2] = assay: cells; format: cell-based
Method: Packed human erythrocytes from healthy donors were obtained from the National Naval Medical Center (Bethesda, Md.) within 48 h of donation and used within 7 days. Packed erythrocytes were washed twice in phosphate buffer solution (PBS) then re-suspended in PBS (1 vol PBS:1 vol packed cells). The erythrocyte suspension (100 ml) was placed on ice and carbon monoxide (CO) was bubbled through it for 2 hours. Saturation with CO (100%) was achieved under these conditions as detected with a CO-oximeter. Erythrocytes were packed and cross-linked with DTBP at 4° C. for different incubation times (from 1 to 24 h; 9 vol cross-linking solution: 1 vol packed cells). The cross-linking solution was prepared by dissolving DTBP in PBS (pH 7.8). After incubation DTBP was removed by repeated washing of the red cells in PBS (IEC Centra centrifuge for 10 min at 1008×g). Reversal of the cross-linking was carried out at room temperature with the reducing agent dithioerythritol (DTT) at a concentration of 10 mM in PBS (9 vol reducing solution: 1 vol packed cells) for 20 min or as indicated in the figure legends. DTT was removed by repeated washing of the red cells in PBS (IEC Centra centrifuge for 10 min at 1008×g). CO-treatment was reversed at room temperature using a hollow fiber membrane oxygenator model Capiox 308. Erythrocytes were processed through the oxygenator for 1 h. Saturation with oxygen (92%) was reached as detected with a CO-oximeter.
Erythrocytes were cross-linked with DTBP at different concentrations for different incubation times. 1 ml of the erythrocyte suspension was taken out at regular incubation times centrifuged and DTBP was removed (Eppendorf centrifuge for 3 min at 3000×g). Distilled water (1 ml) was added to the remaining packed cells. After 30 min the cells were again centrifugated (Eppendorf centrifuge for 3 min at 3000×g), and the supernatants were processed for hemolysis measurements. For determination of hemolysis the cyanmethemoglobin method was applied (see Brown in “Hematology: principles and procedures” pp. 29-31 (Lea and Febiger, eds., 1984)). Absorbance was measured at 540 nm and percent hemolysis was determined by Equation (1), supra, where the control sample was lysed in distilled water.
Erythrocyte stability in distilled water was tested after crosslinking reversal as well. Red blood cells were first cross-linked with DTBP then treated with DTT at different concentrations (from 1 to 10 mM) for different incubation times (from 5 to 20 min). Hemolysis in distilled water was measured as described above.

[3] = Homo sapiens, Erythrocyte, 4 h, read-out: hemolysis in distilled water

## COC(=N)CCSSCCC(=N)OC [DTBP, Dimethyl-3,3′-dithiobispropionimidate]
erythrocytes
  effect on LPC-induced echinocytosis: completely blocked
Red blood cells; 5 mM DTBP 5 h, 72 hrs in PBS
  ATP Content: 51.7 µmol/dL
Red blood cells; 5 mM DTBP 5 h, after 72 hours in PBS at 4° C.
  ATP: 51.7 µmol/dL
Red blood cells; 5 mM DTBP 5 h, final 24 hrs in glucose after PBS
  ATP Content: 51.5 µmol/dL
Red blood cells; 5 mM DTBP 5 h at 4° C., 24 hrs in glucose (first)
  ATP Content: 76.1 µmol/dL
Human erythrocytes [1]; 1 h cross-linked cells
  NaCl concentration at which hemolysis started: 0.4 % NaCl
  NaCl concentration at which total lysis was first measured: 0.1 % NaCl
Human erythrocytes [1]; 3 h cross-linked cells
  NaCl concentration at which hemolysis started: 0.30 % NaCl
  NaCl concentration at which total lysis was first measured: 0.0 % NaCl
Human erythrocytes [2]; 1 or 3 mM DTBP, even after prolonged incubation times
  hemolysis in distilled water: did not produce cells stable to hemolysis in distilled water
Human erythrocytes [2]; Homo sapiens, Erythrocyte, 3 h, read-out: hemolysis in distilled water
  hemolysis at 5000 µM: 100%
Human erythrocytes [2]; [3]
  hemolysis at 5000 µM: 88%
  hemolysis at 7000 µM: 21%
  hemolysis at 10000 µM: 0%
Human erythrocytes [2]; Homo sapiens, Erythrocyte, 5 h, read-out: hemolysis in distilled water
  hemolysis at 5000 µM: 67%
Human erythrocytes [2]; Homo sapiens, Erythrocyte, 7 h, read-out: hemolysis after the treatment with DTT
  hemolysis at 5000 µM: 35%
Human erythrocytes [2]; Homo sapiens, Erythrocyte, 7 h, read-out: hemolysis in distilled water
  hemolysis at 5000 µM: 45%
Human erythrocytes [2]; Homo sapiens, Erythrocyte, 24 h, read-out: hemolysis after the treatment with DTT
  hemolysis at 5000 µM: 100%
Human erythrocytes [2]; Homo sapiens, Erythrocyte, 24 h, read-out: hemolysis in distilled water
  hemolysis at 5000 µM: 10%
Human erythrocytes [2]; cells with lower degree of stabilization (5 mM DTBP 5 h, 67% lysis in water)
  stability in the presence of the reducing agent (DTT): stable in the presence of the reducing agent
